From patent US8618145B2, “Small molecular compounds capable of accelerating proliferation of stem cells and use thereof” (priority 2009, dated 2013)

Assays:
[1] = system: Rat neural stem cells; test: rat neural stem cell proliferation, ATP method; format: cell-based; details: serum free medium; for proliferation rate of neural stem cells in rat: rat adult neural stem cells
Experimental: (§1) Embryonic stem cell (obtained from oosperm according to the conventional method) is cultured in serum free medium (a conventional medium, such as DMEM/F12, αMEM, 1640, etc.). The experiments are divided into control group, FGF group, neural stem cells proliferation accelerator Ia group, FGF+neural stem cells proliferation accelerator Ia group. After culturing for 1 to 4 days, the kit CellTiter-Glo®Luminescent Cell Viability Assay (Promega) is used to detect cells proliferation by ATP method. The ATP method is performed in accordance with operational steps of the kit.
Rat neural stem cells are cultured in serum free medium. The experiments are divided into control group, FGF group, small molecular compound Ia group, and FGF+small molecular compound Ia group. The detection is carried out by ATP method (see the method in Example 6). Small molecular compound Ib, Ic, Id, Ie, If, Ig also conduct said experiment.

[2] = system: rat mesenchymal stem cells; test: rat mesenchymal stem cell proliferation, MTT; format: cell-based; details: α-MEM+10% fetal bovine serum, 2 days, FIG. 4
Experimental: (§2) Human (rat) mesenchymal stem cells (a cell line obtained according to conventional method) is prepared into a single cell suspension by using a medium (α-MEM+10% fetal bovine serum), and is seeded at 1×10^4/well on 96-well plate. The experiments are divided into medium control group; and medium+small molecular compound Ia group. After culturing for 2 days, MTT (5 mg/ml) 10 ul is added. After incubating for 4 hours, a 100 μl lysis solution (10% SDS, 0.1% NH4Cl) is added. The mixture is incubated overnight. The light absorption value is detected at 490 nm.

[3] = system: AD rat model (aggregated Aβ1-40 injected in hippocampus); test: pharmacodynamic evaluation in AD rat (Morris water maze); format: in vivo; details: tail vein injection, administration for 14 days, FIG. 5
Experimental: Establishment of AD rat model: in the experiment, stereotaxic instrument and micro-injection pump are used to inject aggregated Aβ1-40 (5 ug/ul) 2 ul (0.4 ul/min, 5 min) to the dorsal blade of the dentate gyrus in the hippocampus of rat (3.0 mm behind anterior fontanelle, open at right 2.0 mm, subdural 3.2 mm, Incisor hook plane is 2.4 mm lower than the interaural line plane), the model is established after 2 weeks. […]
Pharmacodynamic experiment (Morris water maze): the experimental apparatus is a rustless steel round pool with a height of 60 cm, and a diameter of 150 cm (both the bottom and wall of the pool are covered by black paster to facilitate the video camera for distinguishing the white rats in pool), the video camera is connected to a computer; the pool is divided into four quadrants, and a platform is placed in the middle of the first quadrant. […] The experimental rats enter water from four different positions, the video camera records the swimming paths of each experimental rats, and the experimental results are analyzed by image processing software. […] During the experiment, the time the rat taken from entering water to climbing onto the platform (i.e., escape latency) is recorded, and the rat is allowed to stay on the platform for 10 sec. […] The escape latency of the animals, times of rearing up, and spatial bias are recorded and compared.

[4] = system: hippocampus cells of AD rat; test: HE staining of hippocampus cells in AD rat; format: in vivo; details: AD rat of Example 13, dosage-dependent, FIG. 6 and FIG. 7
Experimental: The rats in Example 13 are perfused and their brains are taken. Rats are anesthetized with 10% chloral hydrate (0.3 ml/100 g). Heparin (200 ug/kg) is injected to the left ventricular, and the right atrial appendage is cut off. 40 ml physiological saline and then 300 ml 4% paraformaldehyde are perfused to the left ventricular to harden the brain. Brain taken: after breaking the neck, the skull is peeled to expose olfactory bulb, peeling it from olfactory bulb with a small curved scissor. After optic nerve is cut off, it is slowly peeled to naturally fall, the adhesion sites are cut off, and are placed into 4% paraformaldehyde solution overnight. It is dehydrated with gradient alcohol and is embedded in olefin, sectioned and floated.
HE staining: dewaxing with dimethylbenzene twice, each for 3 min. Hydration: hydration with descending concentration gradient alcohol: 100%→95%→90%→80%→70%. Dehydration lasts for 2˜3 mins to remove dimethylbenzene during each gradient. Water washing: ethanol is removed. It is dipped into a hematoxylin solution for 5-10 mins, and washed with tap-water. It is dipped into a dilute hydrochloric acid-ethanol solution to carry out color separation for only a few seconds. It is washed with tap-water and dipped into dilute ammonia to make the cell nucleus blue for 3-5 mins. […] It is mounted with neutral resin, and observed by […].

[5] = system: Embryonic stem cell; test: embryonic stem cell proliferation, ATP method (CellTiter-Glo); format: cell-based; details: serum free medium, culturing 1 to 4 days, FIG. 1
Experimental: as §1
Therefore, Ia accelerates the proliferation of embryonic stem cells.

[6] = system: Human neural stem cells; test: human neural stem cell proliferation, MTT; format: cell-based; details: DMEM/F12+10% fetal bovine serum+EGF, bFGF, 4 days, FIG. 2
Experimental: Human neural stem cells (provided according to conventional methods by Peking University Stem Cell Research Center) is prepared into a single cell suspension by using a medium (DMEM/F12+10% fetal bovine serum+20 ng/mIEGF, bFGF), and is seeded at 2×10^4/well on 96-well plate. The experiments are divided into medium control group (a group without adding a medicine); medium+small molecular compound Ia group (a group with a medicine added). After culturing for 4 days, MTT (5 mg/ml) 10 ul is added. After incubating for 4 hours, a 100 μl lysis solution (10% SDS, 0.1% NH4Cl) is added. The mixture is incubated overnight. The light absorption value is detected at 490 nm.
The experimental results are shown in FIG. 2, the height of the histogram represents absorbance, which is proportional to the number of cells (which has the same vertical coordinate in the MTT method, and is not explained one by one).

[7] = system: Human mesenchymal stem cells; test: human mesenchymal stem cell proliferation, MTT; format: cell-based; details: α-MEM+10% fetal bovine serum, 2 days, FIG. 3
Experimental: as §2

Row | SMILES | proliferation rate of neural stem cells in rat [1] | effect on rat neural stem cell proliferation (in words) [1] | rat mesenchymal stem cell proliferation [2] | ability of learning and memory (water maze) [3] | degeneration of hippocampus cells (HE staining) [4] | embryonic stem cell proliferation (chemiluminescence intensity) [5] | human neural stem cell proliferation (absorbance at 490 nm) [6] | human mesenchymal stem cell proliferation [7]
1 | CSc1nnc(-c2ccc(NC(=S)NN)cc2)o1 [Ib, 4-(4-(5-(methylthio)-1,3,4-oxadiazol-2-yl)phenyl) thiosemicarbazide] | 2 | accelerate rat neural stem cell proliferation |  |  |  |  |  | 
2 | NNC(=O)Nc1ccc(-c2nnc(S)o2)cc1 [Id, 4-(4-(5-mercapto-1,3,4-oxadiazol-2-yl)phenyl) semicarbazide] | 1.7 | accelerate rat neural stem cell proliferation |  |  |  |  |  | 
3 | CNC(=S)Nc1ccc(-c2nnc(SC)o2)cc1 [Ic, 1-methyl-3-(4-(5-(methylthio)-1,3,4-oxadiazol-2-yl)phenyl)thiourea] | 1.5 | accelerate rat neural stem cell proliferation |  |  |  |  |  | 
4 | CNC(=S)Nc1ccc(-c2nnc(O)o2)cc1 [Ig, 1-methyl-3-(4-(5-oxo-4,5-dihydro-1,3,4-oxadiazol-2-yl)phenyl)thiourea] | 2.4 | accelerate rat neural stem cell proliferation |  |  |  |  |  | 
5 | NNC(=S)Nc1ccc(-c2nnc(S)o2)cc1 [Ia, 4-(4-(5-mercapto-1,3,4-oxadiazol-2-yl)phenyl) thiosemicarbazide] | 4.2 | accelerate rat neural stem cell proliferation | accelerates rat mesenchymal stem cell proliferation | improved ability of learning and memory | less seriously degenerated | significantly increased | accelerates human neural stem cell proliferation | accelerates human mesenchymal stem cell proliferation
6 | COc1ccc(NNC(=S)Nc2ccc(-c3nnc(S)o3)cc2)cc1 [If] | 2.3 | accelerate rat neural stem cell proliferation |  |  |  |  |  | 
7 | S=C(NNc1ccc(Cl)cc1)Nc1ccc(-c2nnc(S)o2)cc1 [Ie] | 2.5 | accelerate rat neural stem cell proliferation |  |  |  |  |  | 
